Format in all cases: cell-based
What all share (conditions): 5 mg HMO/ml, compared to control cultures

For experiment [1], the system named is GAL3ST2 expression in human LS174T cells. Briefly: Example 3: goblet cell gene expression by quantitative RT-PCR, GAL3ST2. The procedure: (§1) 2′-FL and LNnT are tested with respect to their ability to induce MUC2, TFF3, EIMβ, CHST5, and GAL3ST2 expression in the human LS174T cell culture model of goblet cells. The human LS174T cell line is obtained from the American Type Culture Collection (ATCC). LS174T cells are maintained in minimum essential medium (MEM) supplemented according to instructions at 37° C. in air containing 5% of CO2. 2′-FL and LNnT are dissolved in cell culture grade water to the required concentration. The LS174T cells are treated with the HMO solution containing 0 or 5 mg HMO/ml. The LS174T cells are collected and suspended in Trizol reagent and total RNA is isolated using an RNA analysis kit (Qiagen) according to the manufacturer's instructions and the RNA isolates are quantified using Nanodrop analysis (Thermo Fisher Scientific). RNA isolates are reverse transcribed using a high capacity cDNA Reverse Transcription Kit (Applied Biosystems) to create cDNA, which is then used to assess gene expression via quantitative RT-PCR. For the quantitative RT-PCR, specific TaqMAN gene expression assays are obtained from Applied Biosystems, which include expression assays for MUC2, TFF3, CHST5 and GAL3ST2. Quantitative real-time PCR is performed using TaqMAN PCR Master Mix (Applied Biosystems). […] The results are analysed using SDS 2.3 software and calculated by delta Ct method. […]

In experiment [2] the test system is MUC2 expression in human LS174T cells. Put plainly: Example 3: goblet cell gene expression by quantitative RT-PCR, MUC2. The procedure:
as §1

Experiment [3] has as its system TFF3 expression in human LS174T cells. Briefly: Example 3: goblet cell gene expression by quantitative RT-PCR, TFF3. The procedure:
as §1

In experiment [4] the test system is CHST5 expression in human LS174T cells. Briefly: Example 3: goblet cell gene expression by quantitative RT-PCR, CHST5. On the procedure: as §1

For the molecule `CC(=O)N[C@H]1[C@H](O[C@H]2[C@@H](O)[C@@H](CO)O[C@@H](O[C@H]3[C@H](O)[C@@H](O)C(O)O[C@@H]3CO)[C@@H]2O)O[C@H](CO)[C@@H](O[C@@H]2O[C@H](CO)[C@H](O)[C@H](O)[C@H]2O)[C@@H]1O` (mixture of isomers) [LNnT, lacto-N-neotetraose], in experiment [1], the GAL3ST2 gene expression entry is “lack of induction”. Moreover, the MUC2 gene expression entry in experiment [2] is “increases the expression”. In experiment [3], the TFF3 gene expression entry is “increases the expression”. For the same molecule, the CHST5 gene expression result in experiment [4] is listed as “minimal induction”.

The values above are taken from US20220233561A1, “HUMAN MILK OLIGOSACCHARIDES FOR USE IN THE TREATMENT OF SYMPTOMS IN A PATIENT SUFFERING FROM NON-COELIAC WHEAT AND / OR GLUTEN SENSITIVITY” (GLYCOM A/S, priority 2016, published 2022).
